# Experiments:
# Pneumocystis carinii [1] = conditions: cited from earlier work
# Pneumocystis carinii [2] = conditions: in vivo; cited from earlier work
# [3] = Adverse reactions and toxicity during PCP therapy (Example 3); conditions: inhaled pretreatment; 9 patients
# [4] = human, in vivo; cited from earlier work
# Pneumocystis carinii [5] = assay: Randomized clinical trial of PCP prophylaxis (Example 8); assay type: in vivo, human
compound,measurement,setting,value
"Nc1ccc(S(=O)(=O)c2ccc(N)cc2)cc1 [Dapsone, diaminodiphenylsulfone]",failure rate for PCP,Pneumocystis carinii [1]; dapsone alone,about 39%
same,efficacy in rat PCP model,Pneumocystis carinii [2],effective
CC(C)NCC(O)c1cc(O)cc(O)c1 (stereo not drawn) [metaproterenol],control of aerosol-related cough,[3],in 9 patients cough was mild and controlled
COc1cc(NCc2ccc3nc(N)nc(N)c3c2C)cc(OC)c1OC [trimetrexate],relapse rate within one month,"Pneumocystis carinii [1]; human, in vivo",relapse rates within one month appear to be high
same,adverse reactions,[4],Adverse reactions have been reported
"NCCC[C@](N)(C(=O)O)C(F)F [DFMO, α-difluoromethylornithine]",clinical response,Pneumocystis carinii [1]; recent clinical studies,some clinical response
same,efficacy in rat PCP model,Pneumocystis carinii [2],hot efficacious
Cc1cn([C@H]2C[C@H](N=[N+]=[N-])[C@@H](CO)O2)c(=O)[nH]c1=O [zidovudine],reduction of PCP risk,"Pneumocystis carinii [5]; AZT use, Cox models, with aerosolized pentamidine",two-fold
same,mortality,"Pneumocystis carinii [5]; participants who had taken zidovudine, on aerosolized pentamidine, never taken: 67%",28%

# Reference: US5364615A (priority 1992, dated 1994)
